The text below walks through data of US20240409519A1, “HYDROGENATED QUINOXALINES” (OTSUKA PHARMACEUTICAL CO., LTD., priority 2021, published 2024).

A short description of series [1]: Protein binding rate test (human serum, equilibrium dialysis). Type of series: in vitro ADME. The note with it: test compound 0.001 mmol/L, equilibrium dialysis 37° C. 6 hours. The protocol:
A serum sample was prepared by adding a test compound solution to a human serum (final concentration of the test compound: 0.001 mmol/L). The serum sample and Dulbecco's Phosphate-Buffered Saline (D-PBS(−)) were added to the wells separated by a dialysis membrane to start the reaction. A solution of the internal standard in methanol was prepared and used as a quenching solution.
Specifically, the dialysis membrane (cut-off molecular weight 12000-14000) was pre-conditioned by immersing it in distilled water, followed by 20% ethanol. Then, the membrane was washed with D-PBS(−) and set in an equilibrium dialysis kit. Then, 150 μL of D-PBS(−) was added to one part of each well divided by the dialysis membrane, and 150 μL of serum sample was added to the other part. After sealing all wells and incubation at 37° C. for 6 hours, 30 μL from the serum side and 90 μL from the PBS side of each well were collected and mixed with 90 μL of D-PBS(−) or 30 μL of blank serum and 480 μL of a quenching solution to quench the reaction.
(§1) The mixture was centrifuged (6130 g, 4° C., 10 minutes) and the supernatant was used as a sample for LC-MS/MS.
Peak area ratio ([peak area of test compound]/[peak area of internal standard]) was calculated for the test compound and the internal standard. By comparing the peak area ratio of the PBS side for each test compound with that of the serum side, the protein binding rate (%) of each test compound was calculated from (1-[peak area ratio of PBS side]/[peak area ratio of serum side])×100.

The target of series [2] is T1, serotonin (5-HT) uptake (Rattus norvegicus, UniProt P31652).
T1 construct: used as crude synaptosomal fraction; from tissue; host or cells: rat frontal cortex, crude synaptosomal fraction
T1 sequence (P31652 whole entry): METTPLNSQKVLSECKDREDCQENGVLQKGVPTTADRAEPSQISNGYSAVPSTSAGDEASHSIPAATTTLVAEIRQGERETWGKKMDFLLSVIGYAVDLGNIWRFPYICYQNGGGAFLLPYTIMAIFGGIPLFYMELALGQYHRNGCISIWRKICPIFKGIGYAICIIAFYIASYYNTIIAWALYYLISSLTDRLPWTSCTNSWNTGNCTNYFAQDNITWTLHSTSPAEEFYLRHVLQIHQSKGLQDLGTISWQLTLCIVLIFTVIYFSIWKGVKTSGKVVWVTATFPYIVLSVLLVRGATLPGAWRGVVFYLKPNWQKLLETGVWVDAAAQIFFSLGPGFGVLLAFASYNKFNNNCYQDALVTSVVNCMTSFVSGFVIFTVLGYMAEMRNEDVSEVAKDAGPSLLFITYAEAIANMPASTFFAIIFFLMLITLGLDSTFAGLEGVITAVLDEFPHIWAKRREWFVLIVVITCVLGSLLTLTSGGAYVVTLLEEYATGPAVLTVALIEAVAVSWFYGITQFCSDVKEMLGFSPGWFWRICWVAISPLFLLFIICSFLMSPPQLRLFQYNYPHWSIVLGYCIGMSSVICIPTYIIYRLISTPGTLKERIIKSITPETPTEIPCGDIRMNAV
Briefly: Serotonin (5-HT) uptake inhibitory activity in rat brain synaptosome. Type of series: biochemical. Conditions: rat frontal cortex synaptosome, tritium-labeled 5-HT 8 nM; read-out: IC50 (nM), serotonin (5-HT) uptake inhibition. The protocol: Male Wistar rats were decapitated, each brain was removed, and the frontal cortex was cut out. […] The homogenate was centrifuged at 1000 g at 4° C. for 10 minutes, and the supernatant was further centrifuged at 20000 g at 4° C. for 20 minutes. The pellet was suspended in an incubation buffer (20 mM Hepes buffer (pH 7.4) containing 10 mM glucose, 145 mM sodium chloride, 4.5 mM potassium chloride, 1.2 mM magnesium chloride and 1.5 mM calcium chloride) and used as crude synaptosomal fraction.
Each well of a 96-well round-bottom plate was used for the uptake reaction in a total volume of 200 μL solution containing purgurin (final concentration 10 μM) and ascorbic acid (final concentration 0.2 mg/mL). In other words, solvent, unlabeled 5-HT or step-diluted test compound was added to each well, and one-tenth of the final volume of the synaptosomal fraction was added to each well, followed by pre-incubation at 37° C. for 10 minutes, and then tritium-labeled 5-HT solution (final concentration 8 nM) was added and the uptake reaction was initiated at 37° C. After 10 minutes, the uptake reaction was terminated by suction filtration onto a 96-well glass fiber filter plate. The filters were rinsed with cold physi-ological saline solution, dried thoroughly, and micro scintillation 0 (Perkin-Elmer) was added thereto. Then, the residual radioactivity on the filters was measured.
The uptake value when only solvent was added was set as 100%, the uptake value when unlabeled 5-HT (final concentration 10 μM) was added as 0% (nonspecific uptake value), and the 50% inhibitory concentration was calculated from the concentration of the test compound and its inhibitory activity.

Series [3] has as its target T2, CYP3A4 (Homo sapiens, UniProt P08684).
T2 construct: a human liver microsome solution containing three CYP-specific substrates; from tissue; host or cells: human liver microsomes
Description: CYP inhibition test (1): inhibition rate (%) at one concentration, CYP3A4. It is filed as in vitro ADME. The note with it: human liver microsomes, pH 7.4, probe midazolam (0.005 mmol/L); test compound 0.01 mmol/L, human liver microsome 0.1 mg/mL, substrate midazolam, 37° C. 10 minutes; read-out: inhibition rate (%) 3A4. The protocol: (§2) A metabolic reaction was initiated by adding and mixing a test compound solution (final concentration 0.01 mmol/L) and a NADH/NADPH solution (final concentration 1 mmol/L) to a human liver microsome solution containing three CYP-specific substrates (final concentration 100 mmol/L potassium phosphate buffer solution (pH 7.4), 5 mmol/L magnesium chloride, 0.1 mg/mL human liver microsome, 0.005 mmol/L diclofenac (for CYP2C9), 0.01 mmol/L bufuralol (for […]), 0.005 mmol/L midazolam (for CYP3A4)). As an internal standard solution, a solution of each of stable isotopes of the metabolites (50 ng/mL [13C6] hydroxy diclofenac, 5 ng/mL [2H9] hydroxy bufuralol, and 5 ng/mL [13C6] hydroxy midazolam (all stable isotopes)) in methanol was prepared and used as a quenching solution.
(§3) Specifically, a metabolic reaction was initiated by adding and mixing 2 μL of a solution of a test compound in acetonitrile (or acetonitrile as a control) to 178 μL of a human liver microsome solution in ice water, followed by preincubation at 37° C. for 1 minute, and then adding 20 μL of a NADH/NADPH solution thereto. After incubation at 37° C. for 10 minutes, 50 μL of the reaction mixture was taken, and then it was added and mixed to 500 μL of a quenching solution to quech the reaction. The mixture was centrifuged (6130 g, 4° C., 10 minutes) and the supernatant was used as a sample for LC-MS/MS.
(§4) Peak area ratio ([peak area of metabolite]/[peak area of corresponding stable isotope]) was calculated for a metabolite and a stable isotope of the metabolite as measurement object. By comparing the peak area ratio of each test compound solution with that of the control, the inhibition rate (%) of each CYP species for each test compound was calculated from (1-[peak area ratio of each test compound solution]/[peak area ratio of control])×100.

The target in series [4] is T3, CYP2C9 (Homo sapiens, UniProt P11712).
T3 construct: a human liver microsome solution containing three CYP-specific substrates; from tissue; host or cells: human liver microsomes
T3 sequence (P11712 whole entry): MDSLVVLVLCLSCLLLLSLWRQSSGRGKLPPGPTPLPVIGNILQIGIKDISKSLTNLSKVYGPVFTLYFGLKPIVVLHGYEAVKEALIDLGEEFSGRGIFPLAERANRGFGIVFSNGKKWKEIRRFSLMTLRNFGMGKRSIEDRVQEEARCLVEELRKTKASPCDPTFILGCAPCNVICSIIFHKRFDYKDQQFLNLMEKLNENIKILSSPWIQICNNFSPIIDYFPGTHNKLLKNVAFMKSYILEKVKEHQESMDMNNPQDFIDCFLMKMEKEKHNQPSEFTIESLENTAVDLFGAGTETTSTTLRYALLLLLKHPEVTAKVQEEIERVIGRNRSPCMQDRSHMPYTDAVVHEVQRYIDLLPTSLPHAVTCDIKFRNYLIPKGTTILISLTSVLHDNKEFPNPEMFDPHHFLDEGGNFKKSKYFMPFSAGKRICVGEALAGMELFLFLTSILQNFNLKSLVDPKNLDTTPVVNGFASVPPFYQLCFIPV
Briefly: CYP inhibition test (1): inhibition rate (%) at one concentration, CYP2C9. Type of series: in vitro ADME. Conditions: human liver microsomes, pH 7.4, probe diclofenac (0.005 mmol/L); test compound 0.01 mmol/L, human liver microsome 0.1 mg/mL, substrate diclofenac, 37° C. 10 minutes; read-out: inhibition rate (%) 2C9. The protocol:
as §2, §3, §4

A short description of series [5]: Metabolic stability test (human liver microsome, hepatic intrinsic clearance). Type of series: in vitro ADME. The note with it: human liver microsomes, pH 7.4; human liver microsome 0.2 mg/mL, test compound 0.001 mmol/L, 37° C., 0, 10 and 20 minutes. The protocol:
A metabolic reaction was initiated by adding and mixing a test compound solution (final concentration 0.001 mmol/L) and a NADH/NADPH solution (final concentration 1 mmol/L) to a human liver microsome solution (final concentration 100 mmol/L potassium phosphate buffer solution (pH 7.4), 5 mmol/L magnesium chloride, 0.2 mg/ml, human liver microsome). A solution of the internal standard in methanol was prepared and used as a quenching solution.
Specifically, a metabolic reaction was initiated by adding and mixing 2.5 μL of a solution of a test compound in acetonitrile to 222.5 μL of a human liver microsome solution in ice water, followed by preincubation at 37° C. for 1 minute, and then adding 25 μL of a NADH/NADPH solution thereto.
as §1
Peak area ratio ([peak area of test compound]/[peak area of internal standard]) was calculated for the test compound and the internal standard.
The residual ratio of the test compound was calculated from ([Ratio of peak areas at each reaction time]/[Ratio of peak areas at 0 minute reaction time]).

The structures appear in SMILES notation.

T2 sequence (P08684 whole entry): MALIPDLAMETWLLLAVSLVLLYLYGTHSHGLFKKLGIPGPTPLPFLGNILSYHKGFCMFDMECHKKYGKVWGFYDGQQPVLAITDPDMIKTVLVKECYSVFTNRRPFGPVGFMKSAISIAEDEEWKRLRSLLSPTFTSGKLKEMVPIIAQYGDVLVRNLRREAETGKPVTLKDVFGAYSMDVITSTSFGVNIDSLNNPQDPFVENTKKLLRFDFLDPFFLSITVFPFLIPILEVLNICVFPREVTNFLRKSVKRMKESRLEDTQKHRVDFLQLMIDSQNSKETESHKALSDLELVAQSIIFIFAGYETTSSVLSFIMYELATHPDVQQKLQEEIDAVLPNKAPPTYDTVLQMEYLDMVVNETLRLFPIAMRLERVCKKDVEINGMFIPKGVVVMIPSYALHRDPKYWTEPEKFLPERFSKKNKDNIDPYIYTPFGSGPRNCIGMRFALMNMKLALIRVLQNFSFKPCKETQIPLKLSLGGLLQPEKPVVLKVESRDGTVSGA

Compound `CC1(C)CN(c2cc(F)c(OCCO)cc2F)[C@H]2CCCC[C@H]2N1` [Example 72] had a fraction unbound at 6 h, 0.001 mmol/L in series [1] of 0.766. In series [2], the IC50 amounted to 55.4 nM. For the same compound, the inhibition at 10 min, 0.01 mmol/L in series [3] is -2.4%; in series [4], 1.7%. In series [5], this compound came in with a microsomal CLint at 0.001 mmol/L of under 50 µL/min/mg.
The corresponding values for `CC1(C)CN(c2ccc(OC(F)(F)CO)c(F)c2F)[C@H]2CCCC[C@H]2N1` [Example 73] are 0.267, 8.7 nM, 5.9%, 4.8% and under 50 µL/min/mg.
Take `CC1(C)CN(c2cc(Cl)c(OC(F)(F)CO)cc2F)[C@H]2CCCC[C@@H]2N1` [Example 75]: the fraction unbound at 6 h, 0.001 mmol/L in series [1] was 0.277. For the same compound, the IC50 in series [2] was determined as 9.4 nM. Further, the inhibition at 10 min, 0.01 mmol/L in series [3] is 9.9%; in series [4], 9.1%. In series [5], this compound showed a microsomal CLint at 0.001 mmol/L of under 50 µL/min/mg.
On the same counts, the results for `CC1(C)CN(c2cc(Cl)c(OC(F)(F)CO)cc2F)[C@@H]2CCCC[C@H]2N1` [Example 76] are 0.308, 98.3 nM, 12.4%, 12.6% and under 50 µL/min/mg.
On the same counts, the results for `CC1(C)CN(c2cc(F)c(OC(F)(F)CO)cc2F)[C@H]2CCCC[C@@H]2N1` [Example 77] are 0.411, 42.3 nM, -1.9%, 7.9% and under 50 µL/min/mg.
On the same counts, the results for `Cc1c(OC(F)(F)CO)ccc(N2CC(C)(C)N[C@H]3CCCC[C@@H]32)c1F` [Example 79] are 0.289, 37.3 nM, 17.1%, 8.9% and under 50 µL/min/mg.
`CC1(C)CN(c2ccc(OC(F)(F)CO)c(Cl)c2F)[C@@H]2CCCC[C@H]2N1` [Example 80]: the free fraction (fraction unbound) at 6 h, 0.001 mmol/L in series [1] is 0.21. Moreover, the IC50 in series [2] came to 62.8 nM. The inhibition at 10 min, 0.01 mmol/L in series [3] worked out at 17.6%; in series [4], 2%. This compound showed a microsomal CLint at 0.001 mmol/L in series [5] of 57 µL/min/mg.
